Data on one compound can be found in patent publication US10450295B2, “Method of using an indolinone molecule and derivatives for inhibiting liver fibrosis and hepatitis” (Acclaim BioMed USA LLC, priority 2013, dated 2019).

“Also recorded” adds a separate entry of the source.

The test system of test [1] is Mammalian cells. The settings on record: cited from earlier work.
Test [2] deals with cultured bloodstream forms (BF). The settings on record: read-out: IC50, growth of cultured bloodstream forms (BF); cited from earlier work.
In test [3] the test system is collagen type III. The experiment in a line: Immunofluorescent staining of HSC cultures, collagen type III. In kind it is cell-based, human. The settings on record: 0.625 μM, 24-48 hours. The procedure:
(§1) Human Hepatic Stellate cells (LX-2 cell line) (HSCs) were obtained from the Key Lab of Regenerative Medicine, Jinan University, Guangzhou, China, which were maintained in Dulbecco's Modified Eagle Medium (DMEM)+10% fetal calf serum and penicillin-streptomycin (100 unit/ml and 0.1 mg/ml, respectively), in 5% CO2 at 37° C. inside a humidified cell incubator. The culture medium was changed every three days. To test the effects of small molecule Hesperadin on the mouse and human HSCs, the cultures were treated with 0.625 μM of Hesperadin for 48 hrs. The cultures were then fixed in ice cold 70% ethanol and incubated in phosphate buffered saline with RNase (0.25 mg/ml), Propidium iodide dye (40 μg/ml) and 0.1% Triton X for an hour at room temperature. For cell cycle analysis, the Propidium iodide stained cells were examined using a flow cytometer (“BD LSRFortessa Cell Analyzer”). The proliferation of HSCs was also evaluated by the MTT staining assay with 3-(4,5-Dimethylthiazol-2-yl)-2,5-diphenyltetrazolium bromide). […] The absorbance (at 570 nm) was measured using a BIORAD 3550 Microplate Reader. […] After washing, the sections were viewed and recorded using a FluoView FV1000 Confocal microscope and/or a Nikon i80 microscope respectively to identify the presence of HSC expressing collagens. The positive staining of Collagen types I, III and IV was analyzed with the Metamorph software.

The subject of test [4] is Human Hepatic Stellate cells (LX-2 cell line). The experiment in a line: MTT analysis of HSC proliferation. Type of test: cell-based. The settings on record: serial dilutions, 48 hours. The procedure: Human Hepatic Stellate cells (LX-2 cell line) (HSCs) were obtained from the Key Lab of Regenerative Medicine, Jinan University, Guangzhou, China, which were maintained in Dulbecco's Modified Eagle Medium (DMEM)+10% fetal calf serum and penicillin-streptomycin (100 unit/ml and 0.1 mg/ml, respectively), in 5% CO2 at 37° C. inside a humidified cell incubator. The culture medium was changed every three days. To test the effects of small molecule Hesperadin on the mouse and human HSCs, the cultures were treated with 0.625 μM of Hesperadin for 48 hrs. The cultures were then fixed in ice cold 70% ethanol and incubated in phosphate buffered saline with RNase (0.25 mg/ml), Propidium iodide dye (40 μg/ml) and 0.1% Triton X for an hour at room temperature. For cell cycle analysis, the Propidium iodide stained cells were examined using a flow cytometer (“BD LSRFortessa Cell Analyzer”). The proliferation of HSCs was also evaluated by the MTT staining assay with 3-(4,5-Dimethylthiazol-2-yl)-2,5-diphenyltetrazolium bromide). HSCs were plated at 1×10^4 cells/ml and culture overnight. Hesperadin (in serial dilutions) was then added into the culture medium for 48 hours. This was followed by addition of MTT (250 μg/ml) for a further 4 hours. The medium was eluted and the formazan crystal was dissolved in 100 μL of DMSO. The absorbance (at 570 nm) was measured using a BIORAD 3550 Microplate Reader. […]

In test [5] the test system is collagen type I. Kind of test: Immunofluorescent staining of HSC cultures, collagen type I. In kind it is cell-based, human. The following applies: 0.625 μM, 24-48 hours. The procedure: as §1
The test system of test [6] is MMP-2 gene expression. Kind of test: Real-time RT-PCR in HSC, MMP-2. In kind it is cell-based, human. The following applies: 0.625 μM, FIG. 9. Here is the method:
Human Hepatic Stellate cells (LX-2 cell line) (HSCs) were obtained from the Key Lab of Regenerative Medicine, Jinan University, Guangzhou, China, which were maintained in Dulbecco's Modified Eagle Medium (DMEM)+10% fetal calf serum and penicillin-streptomycin (100 unit/ml and 0.1 mg/ml, respectively), in 5% CO2 at 37° C. inside a humidified cell incubator. The culture medium was changed every three days. To test the effects of small molecule Hesperadin on the mouse and human HSCs, the cultures were treated with 0.625 μM of Hesperadin for 48 hrs. […] The proliferation of HSCs was also evaluated by the MTT staining assay with 3-(4,5-Dimethylthiazol-2-yl)-2,5-diphenyltetrazolium bromide). […] The absorbance (at 570 nm) was measured using a BIORAD 3550 Microplate Reader. […]
Collagen type-I, -III and -VI, MMP-2, MMP-9 and TIMP-1 gene expression was determined using quantitative real-time PCR. […] Quantitation of mRNA levels was performed using a SYBR® Premix Ex Taq™ Kit (Takara) in an Applied Biosystems 7900HT Fast Real-Time PCR System. To quantify the amount of specific mRNA in the samples, a standard curve was generated for each PCR run using four amounts of the cDNA synthesized from our HSC cultures and liver samples. […] Data was analyzed using a StatView software (Abacus Concepts Inc) with Student's t-test.

The target in test [7] is human Aurora B kinase. The settings on record: read-out: IC50 for the prevention of the phosphorylation of substrate; cited from earlier work.

Regarding `CCS(=O)(=O)Nc1ccc2c(c1)/C(=C(/Nc1ccc(CN3CCCCC3)cc1)c1ccccc1)C(=O)N2` [Hesperadin, (Z)—N-(2-oxo-3-(Phenyl(4-(piperidin-1-ylmethyl)phenylamino)methylene)indolin-5-yl)ethanesulfonamide], in test [1] (cells arrested by taxol or monastrol), the “time to enter anaphase” value is given as less than 1 h. Besides, in test [1] (cells in nocodazole), the “time cells stayed arrested” value was 3 to 5 h. The “effect on nuclear division and cytokinesis” value in test [1] was “blocks nuclear division and cytokinesis”. In addition, the IC50 (in general, the concentration that inhibits the measured activity by half) in test [2] was 0.05 µM; in test [7], 0.04 µM. For the same compound, the “collagen type III expression (immunofluorescence)” value in test [3] is “significantly inhibited; also recorded: inhibits the synthesis of collagen type III”. Also, in test [4], the “HSC proliferation (MTT, optical density)” value is listed as “inhibited HSC proliferation in a dose dependent manner; also recorded: suppressed HSC proliferation in a dose-dependent manner”. Moreover, the “collagen type I expression (immunofluorescence)” value in test [5] was “significantly inhibited; also recorded: inhibits the synthesis of collagen type I”. The “MMP-2 mRNA expression” value in test [6] is given as “inhibited”.
